From patent US20190167761A1, “PHARMACEUTICAL COMPOSITION FOR PREVENTING OR TREATING STRESS-RELATED DISEASE, INCLUDING DISC1 PROTEIN OR GENE ENCODING THE SAME” (POSTECH ACADEMY-INDUSTRY FOUNDATION, priority 2017, published 2019)
Entries after “also recorded” stand apart in the source; their conditions may differ. Like-named read-outs stand apart in the source and are kept apart here. Values belong to the molecule of their own block, whether it stands above or below them.

Experiments:
[1] = system: ER-mitochondria Ca^2+ transfer; assay: Corticosterone-induced mitochondrial Ca2+ levels in cerebral cortical neurons; type: cell-based, mouse; settings: for corticosterone-induced increase in mitochondrial Ca2+ levels: preincubation with the agent
Protocol: (§1) To verify the hypothesis, changes in ROS and mitochondrial Ca^2+ levels in cerebral cortical neurons were assessed after treatment with corticosterone (CORT), which is a glucocorticoid stress hormone.

[2] = system: ER-mitochondria Ca^2+ transfer; assay: Oxidative stress (H2O2 / MSC)-induced mitochondrial Ca2+ levels in cerebral cortical neurons; type: cell-based, mouse
Protocol: At this time, to measure mitochondrial Ca^2+ levels at specific time points during incubation of neurons with H2O2, Rhod2/AM, which is a mitochondria-specific chemical Ca^2+ indicator, was used instead of Mito-GCaMP6 capable of causing variations due to different expression levels of Mito-GCaMP6 at multiple time points.

[3] = system: cerebral cortical neurons; assay: Corticosterone-induced ROS generation in cerebral cortical neurons; type: cell-based, mouse
Protocol: as §1

[4] = system: cerebral cortical neurons; assay: ER Ca2+ storage capacity / IP3 generation after corticosterone; type: cell-based, mouse; settings: corticosterone for 1 hour
Protocol: To verify the hypothesis, changes in ROS and mitochondrial Ca^2+ levels in cerebral cortical neurons were assessed after treatment with corticosterone (CORT), which is a glucocorticoid stress hormone. […] To determine whether this glucocorticoid-dependent increase in mitochondrial Ca^2+ levels relies on the induction of oxidative stress, apocynin (APO), which is an antioxidant and a ROS scavenger, was used. […] In contrast, it was confirmed that, when neurons were treated with corticosterone for 1 hour, the capacity of the ER for Ca^2+ storage or IP3 generation was not changed.

[5] = system: ER-mitochondria Ca^2+ transfer; assay: IP3-induced mitochondrial Ca2+ imaging (Mito-GCaMP6) in permeabilized cerebral cortical neurons; type: cell-based, mouse
Protocol: Neurons (DIV7-8) transfected with Mito-GCaMP6 along with each construct were permeabilized with digitonin and Ca^2+-free ionomycin at 37° C. for 2 minutes in a modified EGTA- and Ca^2+-free buffer, and then was exposed to IP3. To measure the effect of RiBFM on mitochondrial Ca^2+ responses, neurons were transfected with Mito GCaMP6, AKAP1-FKBP12, and FRB-SAC1 together with pFlag-cmv2 or Flag-DISC1 on DIV5-6, and neurons pre-incubated with rapamycin for 5 minutes were exposed to IP3 in the same manner as described above.
By considering the functional association between IP3R1 and DISC1 at the MAM, which was verified in the above example, the inventors of the present disclosure examined whether or not DISC1 was involved in regulating ER-mitochondria Ca^2+ transfer. For this, expression constructs for GCaMP6, which is a genetically encoded Ca^2+ indicator, were modified by combining the target sequences for mitochondria or the ER. Subsequently, it was confirmed that the organelle-specific GCaMP6 constructs were expressed in cerebral cortical neurons. In the case of ER Ca^2+ measurement, the results were verified using ER-GCaMP3, which has a relatively low affinity for Ca^2+. […]

IP3R1 [6] = assay: Immunoprecipitation analysis of interaction between DISC1 and IP3R1; type: binding
Text: IP3R1 is known to be predominantly expressed in the brain and abundant in the MAM. Therefore, the MAM localization of DISC1 was confirmed through Example 2, and to examine the interaction between DISC1 and IP3R1, the inventors of the present disclosure performed immunoprecipitation analysis on the two proteins. […] In addition, as illustrated in the immunoblotting results of FIG. 2C, it was confirmed that the endogenous DISC1 protein and the IP3R1 protein were expressed together in whole lysates and the crude MAM fraction ((MAM+Mito), which was derived from the brains of adult mice.

IP3R1 [7] = assay: Competitive IP3 binding assay; settings: proteins immunoprecipitated from HEK293FT cells; 3 nM [3H]-IP3, 4° C., 1 hour
Protocol: Transfected HEK293FT cells were lysed in a NP40 buffer, and then the proteins were immunoprecipitated with antibodies. The immunoprecipitated proteins were incubated with 3 nM [^3H]-IP3 at 4° C. for 1 hour and the concentration of cold IP3 was increased in a Ca^2+-free CLM buffer. Meanwhile, brains were isolated from adult WT or DISC1 LI mice and lysed in a NP40 buffer by sonication, and then endogenous IP3R1 and the DISC1 protein were immunoprecipitated with specific antibodies, and then incubated with [^3H]-IP3 in the same manner as described above, and the concentration of cold IP3 was increased. Thereafter, the resulting mixture was filtered with a GF/B filter and washed three times with a CLM buffer, and then the filter was dried, and radioactivity was measured using a scintillation counter.
In IP3R1, the ligand-binding and modulatory domains are critical regions for ligand binding of IP3Rs, and thus the inventors of the present disclosure examined the influence of DISC1 on binding between IP3R1 and its ligand, i.e., IP3. For this, competitive IP3 binding analysis was performed using IP3R1, DISC1, or DISC1^Δ1-201, which was isolated from HEK293FT cells by immunoprecipitation with antibodies according to the methods of Examples 1 to 3.

[8] = treatment with corticosterone for 1 hour

Molecule: NCCOB(c1ccccc1)c1ccccc1 [2-APB, 2-aminoethyl diphenylborinate]
corticosterone-induced increase in mitochondrial Ca2+ levels [1]: not observed
mitochondrial Ca2+ levels during incubation with H2O2 [2]: these results were not shown

Molecule: COc1cc(C(C)=O)ccc1O [APO, apocynin]
corticosterone-induced mitochondrial Ca2+ levels ([1]; DISC1 shRNA vs CTL shRNA neurons, corticosterone 1 hour): significantly reduced
difference in mitochondrial Ca2+ accumulation between WT and DISC1 LI neurons ([1]; corticosterone): significantly reduced
corticosterone-induced increase in mitochondrial Ca2+ levels [1]: significantly reduced

Molecule: OO [H2O2, Hydrogen peroxide]
mitochondrial Ca2+ levels during incubation with H2O2 ([2]; Rhod2/AM, specific time points): increased proportional to the incubation time

Molecule: C[C@]12C[C@H](O)[C@H]3[C@@H](CCC4=CC(=O)CC[C@@]43C)[C@@H]1CC[C@@H]2C(=O)CO [corticosterone]
mitochondrial Ca2+ levels [1, 8]: significant increases
ROS levels [3, 8]: significant increases
capacity of the ER for Ca2+ storage or IP3 generation [4]: not changed

binding ability of unlabeled IP3 relative to [3H]IP3 bound to IP3R1 (IP3R1 [7]): decreased
B1: DISC1: disrupted in schizophrenia 1 (DISC1) protein, amino acid sequence of SEQ ID NO: 1 or SEQ ID NO: 2 (protein, UniProt Q9NRI5 1-854, looked up)
Disrupted in schizophrenia 1 …: MPGGGPQGAPAAAGGGGVSHRAGSRDCLPPAACFRRRRLARRPGYMRSSTGPGIGFLSPAVGTLFRFPGGVSGEESHHSESRARQCGLDSRGLLVRSPVSKSAAAPTVTSVRGTSAHFGIQLRGGTRLPDRLSWPCGPGSAGWQQEFAAMDSSETLDASWEAACSDGARRVRAAGSLPSAELSSNSCSPGCGPEVPPTPPGSHSAFTSSFSFIRLSLGSAGERGEAEGCPPSREAESHCQSPQEMGAKAASLDGPHEDPRCLSRPFSLLATRVSADLAQAARNSSRPERDMHSLPDMDPGSSSSLDPSLAGCGGDGSSGSGDAHSWDTLLRKWEPVLRDCLLRNRRQMEVISLRLKLQKLQEDAVENDDYDKAETLQQRLEDLEQEKISLHFQLPSRQPALSSFLGHLAAQVQAALRRGATQQASGDDTHTPLRMEPRLLEPTAQDSLHVSITRRDWLLQEKQQLQKEIEALQARMFVLEAKDQQLRREIEEQEQQLQWQGCDLTPLVGQLSLGQLQEVSKALQDTLASAGQIPFHAEPPETIRSLQERIKSLNLSLKEITTKVCMSEKFCSTLRKKVNDIETQLPALLEAKMHAISGNHFWTAKDLTEEIRSLTSEREGLEGLLSKLLVLSSRNVKKLGSVKEDYNRLRREVEHQETAYETSVKENTMKYMETLKNKLCSCKCPLLGKVWEADLEACRLLIQSLQLQEARGSLSVEDERQMDDLEGAAPPIPPRLHSEDKRKTPLKVLEEWKTHLIPSLHCAGGEQKEESYILSAELGEKCEDIGKKLLYLEDQLHTAIHSHDEDLIQSLRRELQMVKETLQAMILQLQPAKEAGEREAAASCMTAGVHEAQA
IP3-induced increase in mitochondrial Ca2+ levels ([5]; overexpression in permeabilized neurons, compared to control (Vector)): significantly reduced the increase in mitochondrial Ca^2+ levels; also recorded: decreased
IP3R1 domains that DISC1 interacted with (IP3R1 [6]; expression constructs for functional domains of IP3R1): a ligand-binding domain (LBD) and modulatory domains (MD1, MD2, and MD3)
interaction with IP3R1 (GFP-IP3R1) (IP3R1 [6]; immunoprecipitation): strong interaction
degree to which mitochondrial Ca2+ levels were increased ([2]; overexpression, 1 hour after H2O2 incubation, compared to control): significantly reduced
corticosterone-induced ROS generation ([3]; DISC1 knockdown or overexpression in neurons): reduced ROS levels

B2: hDISC1: human DISC1 resistant to shRNA (protein, UniProt Q9NRI5 1-854, looked up)
Disrupted in schizophrenia 1 …: B1 Disrupted in schizophrenia 1 …
modifications: shRNA-resistant silent changes
notes: human DISC1 resistant to shRNA
IP3-dependent increase in mitochondrial Ca2+ ([5]; DISC1 expression inhibited, compared to control neurons (CTL shRNA)): restored similarly to the control
